The target of one test is Bcl-xL (Homo sapiens (Human), UniProt Q07817). Briefly: Time Resolved-Fluorescence Resonance Energy Transfer (TR-FRET) binding assay, competition with F-Bak.
Bcl-xL, sequence (Q07817 whole entry): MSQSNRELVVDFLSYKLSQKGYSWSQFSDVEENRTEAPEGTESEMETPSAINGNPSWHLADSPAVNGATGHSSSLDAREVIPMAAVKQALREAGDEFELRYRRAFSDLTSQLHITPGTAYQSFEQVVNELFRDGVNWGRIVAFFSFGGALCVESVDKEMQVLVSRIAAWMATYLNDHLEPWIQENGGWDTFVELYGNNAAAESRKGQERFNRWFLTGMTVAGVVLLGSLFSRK
Conditions: not given
On the technique in general: Time-resolved FRET reads energy transfer from a long-lived donor to a nearby acceptor.
Usually Ki stands for the equilibrium dissociation constant of an inhibitor or competing ligand from its target. As to `Cc1c(-c2ccc(N3CCc4cccc(C(=O)Nc5nc6ccccc6s5)c4C3)nc2C(=O)O)cccc1N(C)C1CCCC(C)(C)C1` (centres unmarked) [Example 159, 6-[8-(1,3-benzothiazol-2-ylcarbamoyl)-3,4-dihydroisoquinolin-2(1H)-yl]-3-{3-[(3,3-dimethylcyclohexyl)(methyl)amino]-2-methylphenyl}pyridine-2-carboxylic acid], the affinity corresponds to a Ki of 0.2 nM.

Staying with this test, now noted: competition with F-Bak probe, GST-Bcl-xL; read-out: TR-FRET binding Bcl-xL Ki.
Consider `Cc1[nH]c(C#N)c(CC2CCCCC2)c1-c1ccc(N2CCc3cccc(C(=O)Nc4nc5ccccc5s4)c3C2)nc1C(=O)NS(C)(=O)=O` [Example 171, N-(1,3-benzothiazol-2-yl)-2-{5-[5-cyano-4-(cyclohexylmethyl)-2-methyl-1H-pyrrol-3-yl]-6-[(methylsulfonyl)carbamoyl]pyridin-2-yl}-1,2,3,4-tetrahydroisoquinoline-8-carboxamide], for which the Ki is less than 0.1 nM.

Another test relates to FL5.12 cells transfected with Bcl-XL. Briefly: FL5.12 Cellular Assay (cell viability, CellTiter-Glo). Format: cell-based, mouse. Conditions: Mus musculus, FL5.12, 24 h, read-out: FL5.12 Bcl-xL, IL3, EC 50 (nM). In general terms: Cellular ATP, detected with luciferase, serves as a proxy for viable cell number.
Protocol: For assaying the compound activity, the cells were exchanged into an IL-3-depleted deprivation media, which was identical to the growth media except for the absence of FBS and WEHI-3B conditional media, for 2 days. Then the cells were exchanged to 3% FBS assay media (RPMI with 2 mM glutamine, 1% 100 mM sodium pyruvate, 2% 1 M HEPES, 4 μL/L of β-mercaptoethanol, 1% penicillin-streptomycin, 3% FBS). Compounds in series dilutions were added, and the cells were cultured for 24 hours. […] Cell viability was assayed using the CellTiter-Glo assay (Promega Corp., Madison, Wis.) according to the manufacturer instructions. Individual determinations were the result of duplicate values.
`Cc1c(OC2CCCC(C)(C)C2)cccc1-c1ccc(N2CCc3cccc(C(=O)Nc4nc5ccccc5s4)c3C2)nc1C(=O)O` (centres unmarked) [Example 121, 6-[8-(1,3-benzothiazol-2-ylcarbamoyl)-3,4-dihydroisoquinolin-2(1H)-yl]-3-{3-[(3,3-dimethylcyclohexyl)oxy]-2-methylphenyl}pyridine-2-carboxylic acid]: the EC50 was 87 nM.

Turning to `Cc1[nH]c(C#N)c(CC2CCCCC2)c1-c1ccc(N2CCc3cccc(C(=O)Nc4nc5ccccc5s4)c3C2)nc1C(=O)NS(C)(=O)=O` [Example 171, N-(1,3-benzothiazol-2-yl)-2-{5-[5-cyano-4-(cyclohexylmethyl)-2-methyl-1H-pyrrol-3-yl]-6-[(methylsulfonyl)carbamoyl]pyridin-2-yl}-1,2,3,4-tetrahydroisoquinoline-8-carboxamide], the EC50 stood at 97 nM.

Staying with this test, now noted: mouse FL5.12 cells transfected with Bcl-XL, IL-3-depleted, 3% FBS assay media, 24 hours; read-out: FL5.12 Bcl-xL, IL3, EC 50.
Turning to `O=C(Nc1nc2ccccc2s1)c1cccc2c1CN(c1ccc(-c3cccc(Oc4ccccc4)c3)c(C(=O)O)n1)CC2` [Example 103, 6-[8-(1,3-benzothiazol-2-ylcarbamoyl)-3,4-dihydroisoquinolin-2(1H)-yl]-3-(3-phenoxyphenyl)pyridine-2-carboxylic acid], the EC50 was greater than 1000 nM.

`N#Cc1cccc(Cn2cc(-c3ccc(N4CCc5cccc(C(=O)Nc6nc7ccccc7s6)c5C4)nc3C(=O)O)cn2)c1` [Example 24, 6-[8-(1,3-benzothiazol-2-ylcarbamoyl)-3,4-dihydroisoquinolin-2(1H)-yl]-3-[1-(3-cyanobenzyl)-1H-pyrazol-4-yl]pyridine-2-carboxylic acid]: the EC50 was greater than 1000 nM.

Take `CC(C)(C)Cn1cc(-c2ccc(N3CCc4cccc(C(=O)Nc5nc6ccccc6s5)c4C3)nc2C(=O)O)cn1` [Example 59, 6-[8-(1,3-benzothiazol-2-ylcarbamoyl)-3,4-dihydroisoquinolin-2(1H)-yl]-3-[1-(2,2-dimethylpropyl)-1H-pyrazol-4-yl]pyridine-2-carboxylic acid]: the EC50 is greater than 1000 nM.

On to `COCCCC1(Cn2ncc(-c3ccc(N4CCc5cccc(C(=O)Nc6nc7ccccc7s6)c5C4)nc3C(=O)O)c2C)CCCCC1` [Example 97, 6-[8-(1,3-benzothiazol-2-ylcarbamoyl)-3,4-dihydroisoquinolin-2(1H)-yl]-3-(1-{[1-(3-methoxypropyl)cyclohexyl]methyl}-5-methyl-1H-pyrazol-4-yl)pyridine-2-carboxylic acid], for which the EC50 is less than 1 nM.

For the compound `O=C(Nc1nc2ccccc2s1)c1cccc2c1CN(c1ccc(-c3cnn(CCc4ccccc4)c3)c(C(=O)O)n1)CC2` [Example 38, 6-[8-(1,3-benzothiazol-2-ylcarbamoyl)-3,4-dihydroisoquinolin-2(1H)-yl]-3-[1-(2-phenylethyl)-1H-pyrazol-4-yl]pyridine-2-carboxylic acid], the EC50 is greater than 1000 nM.

Take `O=C(Nc1nc2ccccc2s1)c1cccc2c1CN(c1ccc(-c3cnn(Cc4cccnc4)c3)c(C(=O)O)n1)CC2` [Example 3, 6-[8-(1,3-benzothiazol-2-ylcarbamoyl)-3,4-dihydroisoquinolin-2(1H)-yl]-3-[1-(pyridin-3-ylmethyl)-1H-pyrazol-4-yl]pyridine-2-carboxylic acid]: the EC50 was greater than 1000 nM.

Regarding `O=C(Nc1nc2ccccc2s1)c1cccc2c1CN(c1ccc(-c3cnn(Cc4cccc(O)c4)c3)c(C(=O)O)n1)CC2` [Example 17, 6-[8-(1,3-benzothiazol-2-ylcarbamoyl)-3,4-dihydroisoquinolin-2(1H)-yl]-3-[1-(3-hydroxybenzyl)-1H-pyrazol-4-yl]pyridine-2-carboxylic acid], the EC50 was greater than 1000 nM.

As for `O=C(Nc1nc2ccccc2s1)c1cccc2c1CN(c1ccc(-c3cnn(Cc4ccccn4)c3)c(C(=O)O)n1)CC2` [Example 26, 6-[8-(1,3-benzothiazol-2-ylcarbamoyl)-3,4-dihydroisoquinolin-2(1H)-yl]-3-[1-(pyridin-2-ylmethyl)-1H-pyrazol-4-yl]pyridine-2-carboxylic acid], the EC50 is greater than 1000 nM.

As for `COc1cccc(Cn2cc(-c3ccc(N4CCc5cccc(C(=O)Nc6nc7ccccc7s6)c5C4)nc3C(=O)O)cn2)c1` [Example 14, 6-[8-(1,3-benzothiazol-2-ylcarbamoyl)-3,4-dihydroisoquinolin-2(1H)-yl]-3-[1-(3-methoxybenzyl)-1H-pyrazol-4-yl]pyridine-2-carboxylic acid], the EC50 is greater than 1000 nM.

As to `COc1ccc2nc(NC(=O)c3cccc4c3CN(c3ccc(-c5cnn(Cc6ccccc6)c5)c(C(=O)O)n3)CC4)sc2c1` [Example 11, 3-(1-benzyl-1H-pyrazol-4-yl)-6-{8-[(6-methoxy-1,3-benzothiazol-2-yl)carbamoyl]-3,4-dihydroisoquinolin-2(1H)-yl}pyridine-2-carboxylic acid], the EC50 was greater than 1000 nM.

Turning to `O=C(Nc1nc2cccc(Cl)c2s1)c1cccc2c1CN(c1ccc(-c3cnn(Cc4ccccc4)c3)c(C(=O)O)n1)CC2` [Example 21, 3-(1-benzyl-1H-pyrazol-4-yl)-6-{8-[(7-chloro-1,3-benzothiazol-2-yl)carbamoyl]-3,4-dihydroisoquinolin-2(1H)-yl}pyridine-2-carboxylic acid], the EC50 is greater than 1000 nM.

With `Cc1c(-c2ccc(N3CCc4cccc(C(=O)Nc5nc6ccccc6s5)c4C3)nc2C(=O)O)cnn1C[C@@H]1CC[C@@H]2C[C@H]1C2(C)C` [Example 85, 6-[8-(1,3-benzothiazol-2-ylcarbamoyl)-3,4-dihydroisoquinolin-2(1H)-yl]-3-(1-{[(1R,2R,5R)-6,6-dimethylbicyclo[3.1.1]hept-2-yl]methyl}-5-methyl-1H-pyrazol-4-yl)pyridine-2-carboxylic acid], the EC50 is 12 nM.

With `O=C(Nc1nc2ccccc2s1)c1cccc2c1CN(c1ccc(-c3cnn(Cc4ccc(Cl)cc4)c3)c(C(=O)O)n1)CC2` [Example 15, 6-[8-(1,3-benzothiazol-2-ylcarbamoyl)-3,4-dihydroisoquinolin-2(1H)-yl]-3-[1-(4-chlorobenzyl)-1H-pyrazol-4-yl]pyridine-2-carboxylic acid], the EC50 is greater than 1000 nM.

Values taken from patent US9266877B2, “Apoptosis-inducing agents for the treatment of cancer and immune and autoimmune diseases” (priority 2011, dated 2016).
